Assay results as given in patent publication US20100210611A1, “COMBINATION THERAPY” (priority 2007, published 2010).
Several values for one entry are separate records, joined by “and”; a condition that tells them apart may be missing. Equal values may be shown once.

How the values were obtained:
[1] = Blend uniformity (individual capsule assay); type: physicochemical; settings: HPLC, Mean ± RSD
Protocol: To assess blend uniformity, capsules from each blend were opened and rinsed with methanol. The solution was sonicated for 5 minutes at room temperature, centrifuged at 3000 rpm for 15 minutes then assayed using a UV-VIS spectrophotometer at a wavelength of 346 nm. […]
To assess blend uniformity, the blend was sampled randomly from the glass vial. The drugs were extracted analogous to that described in section Blend Uniformity for Example 1. However, the content of montelukast acid and mometasone furoate were analyzed by High Performance Liquid Chromatography (HPLC) employing a phenyl column with a controlled temperature of 50° C., a mixture of water containing 0.2% trifluoroacetic acid (TFA) and acetonitrile containing 0.2% TFA (53:47) as the mobile phase at a flow rate 2 ml/min and UV-detection at 248 nm.
The blend uniformity was assessed in a manner analogous to that described in the Blend Uniformity section in Example 4, except the content of montelukast acid and ciclesonide were analyzed by High Performance Liquid Chromatography (HPLC) employing a phenyl column with a controlled temperature of 50° C., a mixture of water containing 0.2% trifluoroacetic acid (TFA) and acetonitrile containing 0.2% TFA (40:60) at a flow rate 2 ml/min and UV-detection at 248 nm.

[2] = Moisture and light sensitivity; type: physicochemical

In the case of `CC(C)(O)c1ccccc1CC[C@@H](SCC1(CC(=O)O)CC1)c1cccc(/C=C/c2ccc3ccc(Cl)cc3n2)c1` [Montelukast Acid, montelukast acid], the “Amount Recovered (μg/Capsule)” value ([1]; Example 4 blend (montelukast acid 4%, mometasone furoate 1.6%)) is reported as 940.4 µg and 907.0 µg and 953.9 µg, the “Amount Recovered (μg/Capsule)” value ([1]; Example 4 blend (montelukast acid 4%, mometasone furoate 1.6%), mean) is reported as 933.8 ± 2.6 µg and the “Amount Recovered, %” value ([1]; Example 4 blend) is reported as 91.4% and 93.0% and 93.9%. The “Amount Recovered, %” value ([1]; Example 4 blend, mean) was 92.8 ± 1.4%, the “Amount Recovered (μg/Capsule)” value ([1]; Example 5 blend (montelukast acid 4%, ciclesonide 0.64%)) was 943.3 µg and 928.8 µg and 997.5 µg and the “Amount Recovered (μg/Capsule)” value ([1]; Example 5 blend (montelukast acid 4%, ciclesonide 0.64%), mean of three capsules) was 956.6 ± 3.4 µg. The “Amount Recovered, %” value ([1]; Example 5 blend) was 94.3% and 92.9% and 99.8%, the “Amount Recovered, %” value ([1]; Example 5 blend, mean of three capsules) was 95.7 ± 3.4% and the “moisture and light sensitivity” value [2] was “moisture sensitive and photosensitive”.
